Assays:
[1] = mn = molality of the nth substance listed, in mol/kg; settings: 350 kPa, Liquid
[2] = molar heat capacity at constant pressure; mn = molality of the nth substance listed, in mol/kg; settings: 350 kPa, Liquid

N[C@@H](CC(=O)O)C(=O)O [L-aminosuccinic acid] + O
Settings | mass density, m1 = 0.002 [kg/m3] | mass density, m1 = 0.004 [kg/m3] | mass density, m1 = 0.00601 [kg/m3] | mass density, m1 = 0.00801 [kg/m3] | mass density, m1 = 0.01 [kg/m3] | molar heat capacity at constant pressure, m1 = 0.002 [J/K/mol] | molar heat capacity at constant pressure, m1 = 0.004 [J/K/mol] | molar heat capacity at constant pressure, m1 = 0.00601 [J/K/mol] | molar heat capacity at constant pressure, m1 = 0.00801 [J/K/mol] | molar heat capacity at constant pressure, m1 = 0.01 [J/K/mol]
[1], 278.15 K | 1000.34 | 1000.29 | 1000.42 | 1000.62 | 1000.79 | – | – | – | – | –
[1], 283.15 K | 1000.09 | 1000.05 | 1000.2 | 1000.36 | 1000.48 | – | – | – | – | –
[1], 288.15 K | 999.47 | 999.41 | 999.59 | 999.76 | 999.84 | – | – | – | – | –
[1], 298.15 K | 997.39 | 997.34 | 997.51 | 997.69 | 997.73 | – | – | – | – | –
[1], 308.15 K | 994.35 | 994.31 | 994.5 | 994.64 | 994.7 | – | – | – | – | –
[1], 318.15 K | 990.53 | 990.51 | 990.66 | 990.76 | 990.87 | – | – | – | – | –
[1], 328.15 K | 985.99 | 986.02 | 986.15 | 986.25 | 986.33 | – | – | – | – | –
[1], 338.15 K | 980.85 | 980.89 | 981.01 | 981.13 | 981.18 | – | – | – | – | –
[1], 348.15 K | 975.14 | 975.19 | 975.26 | 975.41 | 975.51 | – | – | – | – | –
[1], 358.15 K | 968.93 | 968.98 | 969.03 | 969.18 | 969.3 | – | – | – | – | –
[1], 368.15 K | 962.17 | 962.28 | 962.3 | 962.49 | 962.59 | – | – | – | – | –
[2], 278.15 K | – | – | – | – | – | 75.71 | 75.71 | 75.71 | 75.71 | 75.71
[2], 283.15 K | – | – | – | – | – | 75.54 | 75.54 | 75.54 | 75.54 | 75.54
[2], 288.15 K | – | – | – | – | – | 75.42 | 75.42 | 75.43 | 75.43 | 75.42
[2], 293.15 K | – | – | – | – | – | 75.34 | 75.34 | 75.35 | 75.35 | 75.35
[2], 298.15 K | – | – | – | – | – | 75.29 | 75.29 | 75.3 | 75.3 | 75.3
[2], 303.15 K | – | – | – | – | – | 75.26 | 75.26 | 75.27 | 75.27 | 75.27
[2], 308.15 K | – | – | – | – | – | 75.25 | 75.25 | 75.25 | 75.26 | 75.26
[2], 313.15 K | – | – | – | – | – | 75.25 | 75.25 | 75.25 | 75.26 | 75.26
[2], 318.15 K | – | – | – | – | – | 75.26 | 75.26 | 75.27 | 75.27 | 75.27
[2], 323.15 K | – | – | – | – | – | 75.28 | 75.28 | 75.29 | 75.29 | 75.29
[2], 328.15 K | – | – | – | – | – | 75.31 | 75.32 | 75.32 | 75.33 | 75.33
[2], 333.15 K | – | – | – | – | – | 75.35 | 75.36 | 75.36 | 75.37 | 75.37
[2], 338.15 K | – | – | – | – | – | 75.4 | 75.41 | 75.41 | 75.41 | 75.42
[2], 343.15 K | – | – | – | – | – | 75.46 | 75.47 | 75.47 | 75.47 | 75.48
[2], 348.15 K | – | – | – | – | – | 75.52 | 75.53 | 75.53 | 75.54 | 75.54
[2], 353.15 K | – | – | – | – | – | 75.6 | 75.61 | 75.61 | 75.61 | 75.61
[2], 358.15 K | – | – | – | – | – | 75.68 | 75.69 | 75.69 | 75.69 | 75.69
[2], 363.15 K | – | – | – | – | – | 75.76 | 75.77 | 75.77 | 75.78 | 75.78
[2], 368.15 K | – | – | – | – | – | 75.86 | 75.87 | 75.87 | 75.87 | 75.87
[2], 373.15 K | – | – | – | – | – | 75.96 | 75.97 | 75.97 | 75.97 | 75.98
[2], 378.15 K | – | – | – | – | – | 76.07 | 76.08 | 76.08 | 76.09 | 76.09
[2], 383.15 K | – | – | – | – | – | 76.2 | 76.2 | 76.2 | 76.21 | 76.21
[2], 388.15 K | – | – | – | – | – | 76.33 | 76.34 | 76.33 | 76.34 | 76.34
[2], 393.15 K | – | – | – | – | – | 76.47 | 76.48 | 76.48 | 76.48 | 76.48

N[C@@H](CCC(=O)O)C(=O)O [L-glutamic acid] + O
Settings | mass density, m1 = 0.00249 [kg/m3] | mass density, m1 = 0.005 [kg/m3] | mass density, m1 = 0.00999 [kg/m3] | mass density, m1 = 0.01497 [kg/m3] | mass density, m1 = 0.02005 [kg/m3] | molar heat capacity at constant pressure, m1 = 0.00249 [J/K/mol] | molar heat capacity at constant pressure, m1 = 0.005 [J/K/mol] | molar heat capacity at constant pressure, m1 = 0.00999 [J/K/mol] | molar heat capacity at constant pressure, m1 = 0.01497 [J/K/mol] | molar heat capacity at constant pressure, m1 = 0.02005 [J/K/mol]
[1], 278.15 K | 1000.19 | 1000.25 | 1001.06 | 1000.93 | 1001.36 | – | – | – | – | –
[1], 283.15 K | 999.98 | 999.98 | 1000.74 | 1000.64 | 1001.07 | – | – | – | – | –
[1], 288.15 K | 999.38 | 999.38 | 1000.11 | 1000.03 | 1000.44 | – | – | – | – | –
[1], 298.15 K | 997.3 | 997.33 | 998.03 | 997.95 | 998.34 | – | – | – | – | –
[1], 308.15 K | 994.32 | 994.31 | 994.97 | 994.92 | 995.33 | – | – | – | – | –
[1], 318.15 K | 990.49 | 990.5 | 991.14 | 991.09 | 991.48 | – | – | – | – | –
[1], 328.15 K | 985.92 | 985.99 | 986.59 | 986.57 | 986.97 | – | – | – | – | –
[1], 338.15 K | 980.82 | 980.87 | 981.45 | 981.46 | 981.84 | – | – | – | – | –
[1], 348.15 K | 975.1 | 975.18 | 975.74 | 975.74 | 976.12 | – | – | – | – | –
[1], 358.15 K | 968.87 | 968.96 | 969.5 | 969.51 | 969.88 | – | – | – | – | –
[1], 368.15 K | 962.18 | 962.24 | 962.76 | 962.76 | 963.12 | – | – | – | – | –
[2], 278.15 K | – | – | – | – | – | 75.67 | 75.7 | 75.73 | 75.73 | 75.74
[2], 283.15 K | – | – | – | – | – | 75.5 | 75.53 | 75.55 | 75.56 | 75.57
[2], 288.15 K | – | – | – | – | – | 75.39 | 75.41 | 75.44 | 75.45 | 75.46
[2], 293.15 K | – | – | – | – | – | 75.32 | 75.34 | 75.36 | 75.38 | 75.38
[2], 298.15 K | – | – | – | – | – | 75.27 | 75.29 | 75.31 | 75.33 | 75.33
[2], 303.15 K | – | – | – | – | – | 75.24 | 75.27 | 75.28 | 75.3 | 75.3
[2], 308.15 K | – | – | – | – | – | 75.23 | 75.25 | 75.27 | 75.29 | 75.29
[2], 313.15 K | – | – | – | – | – | 75.23 | 75.25 | 75.27 | 75.28 | 75.29
[2], 318.15 K | – | – | – | – | – | 75.24 | 75.27 | 75.28 | 75.3 | 75.31
[2], 323.15 K | – | – | – | – | – | 75.27 | 75.29 | 75.3 | 75.32 | 75.33
[2], 328.15 K | – | – | – | – | – | 75.3 | 75.32 | 75.34 | 75.35 | 75.36
[2], 333.15 K | – | – | – | – | – | 75.34 | 75.36 | 75.38 | 75.39 | 75.4
[2], 338.15 K | – | – | – | – | – | 75.39 | 75.41 | 75.43 | 75.44 | 75.45
[2], 343.15 K | – | – | – | – | – | 75.45 | 75.47 | 75.48 | 75.5 | 75.51
[2], 348.15 K | – | – | – | – | – | 75.51 | 75.54 | 75.55 | 75.57 | 75.58
[2], 353.15 K | – | – | – | – | – | 75.58 | 75.61 | 75.62 | 75.64 | 75.65
[2], 358.15 K | – | – | – | – | – | 75.66 | 75.69 | 75.7 | 75.72 | 75.73
[2], 363.15 K | – | – | – | – | – | 75.75 | 75.78 | 75.79 | 75.81 | 75.82
[2], 368.15 K | – | – | – | – | – | 75.85 | 75.87 | 75.88 | 75.91 | 75.91
[2], 373.15 K | – | – | – | – | – | 75.95 | 75.98 | 75.99 | 76.01 | 76.02
[2], 378.15 K | – | – | – | – | – | 76.06 | 76.09 | 76.1 | 76.13 | 76.13
[2], 383.15 K | – | – | – | – | – | 76.18 | 76.21 | 76.22 | 76.25 | 76.25
[2], 388.15 K | – | – | – | – | – | 76.32 | 76.34 | 76.35 | 76.38 | 76.38
[2], 393.15 K | – | – | – | – | – | 76.46 | 76.48 | 76.49 | 76.53 | 76.51

From the NIST ThermoML archive (doi:10.1016/j.jct.2006.08.008)
